Laboratory results published in PubChem BioAssay AID1990 (Broad Institute, 2009).
Inconclusive results are not listed. The source made the active and inactive calls. The rule behind the calls is not given here.

target: Luciferin 4-monooxygenase (Photinus pyralis) (UniProt P08659); assay: Luciferase translation or activity inhibitors, H4 neuroglioblastoma cells, luminescence dose response (AID 1990); conditions: H4 neuroglioma cells
Sequence (P08659 whole entry, looked up): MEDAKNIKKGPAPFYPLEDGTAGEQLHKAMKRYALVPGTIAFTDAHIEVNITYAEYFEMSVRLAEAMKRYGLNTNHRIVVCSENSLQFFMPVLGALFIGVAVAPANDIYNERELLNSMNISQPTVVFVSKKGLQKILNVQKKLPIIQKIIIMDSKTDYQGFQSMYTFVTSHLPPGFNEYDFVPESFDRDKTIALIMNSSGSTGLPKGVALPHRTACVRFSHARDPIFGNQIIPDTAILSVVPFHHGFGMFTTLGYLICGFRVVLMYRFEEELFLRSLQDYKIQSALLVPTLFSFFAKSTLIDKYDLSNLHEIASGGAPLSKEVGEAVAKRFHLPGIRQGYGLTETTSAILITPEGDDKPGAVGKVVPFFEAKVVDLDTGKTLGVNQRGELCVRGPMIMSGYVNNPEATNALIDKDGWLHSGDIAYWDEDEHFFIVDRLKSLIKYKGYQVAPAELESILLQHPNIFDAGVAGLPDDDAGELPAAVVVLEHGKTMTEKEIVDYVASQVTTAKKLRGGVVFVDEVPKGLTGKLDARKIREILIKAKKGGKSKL

| SMILES | EC50 |
| --- | --- |
| COc1ccc(O)c2c(=O)c3c(OC)cc4c(c3oc12)C1C=COC1O4 (stereo not drawn) | < 0.1 µM |
| C=C(C=O)CC1CC(O)[C@]2(C)OC3CC4OC5C[C@]6(C)O[C@]7(C)CCC8OC9C[C@]%10(C)OC%11C(C)=CC(=O)OC%11CC%10OC9C[C@@H](C)C8OC7CC6O[C@]5(C)CC5OC5C4OC3CC2O1 (stereo partly drawn) | > 12 µM (inactive) |
| C#CCOCCOCCOCCNc1nc(N2CCN(C(=O)CCCCCCCCCCNC(=O)[C@H](CO)n3cc(CCCSC)nn3)CC2)nc(N2CCN(C(=O)CCCCCCCCCCNC(=O)[C@H](CCCCN)n3cc(C[C@@H](C)CC)nn3)CC2)n1 | 7.24 µM |
